# Results reported in US10392397B2, “Heterocyclic thiosemicarbazone derivatives and their therapeutical applications” (NANTBIO, INC., priority 2015, dated 2019).
# Legend:
# Assay type in all cases: cell-based
# MALME-3M = test: SRB growth inhibition, MALME-3M; details: Homo sapiens, Melanoma, 48 h
# Method: (§1) Human tumor cell lines were grown in RPM(1640 medium containing 5% fetal bovine serum and 2 mM L-glutamine. For a typical screening experiment, cells were inoculated into 96 well microtiter plates in 100 μL at plating densities ranging from 5,000 to 40,000 cells/well depending on the doubling time of individual cell lines. After cell inoculation, the microtiter plates were incubated at 37° C., 5% CO2, 95% air and 100% relative humidity for 24 h prior to addition of Compound 3 above.
# (§2) After 24 h, two plates of each cell line were fixed in situ with TCA, to represent a measurement of the cell population for each cell line at the time of drug addition (Tz). […]
# (§3) Following drug addition, the plates were incubated for an additional 48 h at 37° C., 5% CO2, 95% air, and 100% relative humidity. […] Bound stain was subsequently solubilized with 10 mM trizma base, and the absorbance was read on an automated plate reader at a wavelength of 515 nm. […] Using the seven absorbance measurements [time zero, (Tz), control growth, (C), and test growth in the presence of drug at the five concentration levels (Ti)], the percentage growth was calculated at each of the drug concentrations levels. Percentage growth inhibition was calculated as: [(Ti-Tz)/(C-Tz)]×100 for concentrations for which Ti>/=Tz [(Ti-Tz)/Tz]×100 for concentrations for which Ti<Tz. […]
# CCRF-CEM = test: SRB growth inhibition, CCRF-CEM; details: Homo sapiens, Leukemia, 48 h
# Method: as §1, §2, §3
# SK-OV-3 = test: SRB growth inhibition, SK-OV-3; details: Homo sapiens, SK-OV-3, Ovarian Cancer, 48 h
# Method: as §1, §2, §3
# A498 = test: SRB growth inhibition, A498; details: Homo sapiens, A498, Renal Cancer, 48 h
# Method: as §1, §2, §3
# BT-549 = test: SRB growth inhibition, BT-549; details: Homo sapiens, BT-549, Breast Cancer, 48 h
# Method: as §1, §2, §3
# M14 = test: SRB growth inhibition, M14; details: Homo sapiens, M14, Melanoma, 48 h
# Method: as §1, §2, §3
# SW-620 = test: SRB growth inhibition, SW-620; details: Homo sapiens, SW-620, Colon Cancer, 48 h
# Method: as §1, §2, §3
# HT29 = test: SRB growth inhibition, HT29; details: Homo sapiens, HT-29, HT29, Colon Cancer, 48 h
# Method: as §1, §2, §3
# MCF7 = test: SRB growth inhibition, MCF7; details: Homo sapiens, MCF7, Breast Cancer, 48 h
# Method: as §1, §2, §3
# HS 578T = test: SRB growth inhibition, HS 578T; details: Homo sapiens, Breast Cancer, 48 h
# Method: as §1, §2, §3
# MDA-MB-435 = test: SRB growth inhibition, MDA-MB-435; details: Homo sapiens, MDA-MB-435, Melanoma, 48 h
# Method: as §1, §2, §3
# A549/ATCC = test: SRB growth inhibition, A549/ATCC; details: Homo sapiens, Non-Small Cell Lung Cancer, 48 h
# Method: as §1, §2, §3
# UACC-62 = test: SRB growth inhibition, UACC-62; details: Homo sapiens, UACC-62, Melanoma, 48 h
# Method: as §1, §2, §3
# EKVX = test: SRB growth inhibition, EKVX; details: Homo sapiens, Non-Small Cell Lung Cancer, 48 h
# Method: as §1, §2, §3
# NCI-H322M = test: SRB growth inhibition, NCI-H322M; details: Homo sapiens, Non-Small Cell Lung Cancer, 48 h
# Method: as §1, §2, §3
# NCI-H522 = test: SRB growth inhibition, NCI-H522; details: Homo sapiens, NCI-H522, Non-Small Cell Lung Cancer, 48 h
# Method: as §1, §2, §3
# COLO 205 = test: SRB growth inhibition, COLO 205; details: Homo sapiens, COLO 205, Colon Cancer, 48 h
# Method: as §1, §2, §3
# NCI-H226 = test: SRB growth inhibition, NCI-H226; details: Homo sapiens, NCI-H226, Non-Small Cell Lung Cancer, 48 h
# Method: as §1, §2, §3
# HOP-62 = test: SRB growth inhibition, HOP-62; details: Homo sapiens, HOP-62, Non-Small Cell Lung Cancer, 48 h
# Method: as §1, §2, §3
# LOX IMVI = test: SRB growth inhibition, LOX IMVI; details: Homo sapiens, Melanoma, 48 h
# Method: as §1, §2, §3
# OVCAR-8 = test: SRB growth inhibition, OVCAR-8; details: Homo sapiens, OVCAR-8, Ovarian Cancer, 48 h
# Method: as §1, §2, §3
# MOLT-4 = test: SRB growth inhibition, MOLT-4; details: Homo sapiens, MOLT-4, Leukemia, 48 h
# Method: as §1, §2, §3
# OVCAR-3 = test: SRB growth inhibition, OVCAR-3; details: Homo sapiens, OVCAR-3, Ovarian Cancer, 48 h
# Method: as §1, §2, §3
# HCT-15 = test: SRB growth inhibition, HCT-15; details: Homo sapiens, HCT-15, Colon Cancer, 48 h
# Method: as §1, §2, §3
# CAKI-1 = test: SRB growth inhibition, CAKI-1; details: Homo sapiens, CAKI-1, Renal Cancer, 48 h
# Method: as §1, §2, §3
# HCC-2998 = test: SRB growth inhibition, HCC-2998; details: Homo sapiens, HCC-2998, Colon Cancer, 48 h
# Method: as §1, §2, §3
# OVCAR-4 = test: SRB growth inhibition, OVCAR-4; details: Homo sapiens, OVCAR-4, Ovarian Cancer, 48 h
# Method: as §1, §2, §3
# RXF 393 = test: SRB growth inhibition, RXF 393; details: Homo sapiens, RXF 393, Renal Cancer, 48 h
# Method: as §1, §2, §3
# DU-145 = test: SRB growth inhibition, DU-145; details: Homo sapiens, DU-145, Prostate Cancer, 48 h
# Method: as §1, §2, §3
# SK-MEL-2 = test: SRB growth inhibition, SK-MEL-2; details: Homo sapiens, SK-MEL-2, Melanoma, 48 h
# Method: as §1, §2, §3
# SR = test: SRB growth inhibition, SR; details: Homo sapiens, Leukemia, 48 h
# Method: as §1, §2, §3
# NCI-H460 = test: SRB growth inhibition, NCI-H460; details: Homo sapiens, NCI-H460, Non-Small Cell Lung Cancer, 48 h
# Method: as §1, §2, §3
# SNB-19 = test: SRB growth inhibition, SNB-19; details: Homo sapiens, SNB-19, CNS Cancer, 48 h
# Method: as §1, §2, §3
# RPMI-8226 = test: SRB growth inhibition, RPMI-8226; details: Homo sapiens, RPMI-8226, Leukemia, 48 h
# Method: as §1, §2, §3
# HOP-92 = test: SRB growth inhibition, HOP-92; details: Homo sapiens, HOP-92, Non-Small Cell Lung Cancer, 48 h
# Method: as §1, §2, §3
# NCI/ADR-RES = test: SRB growth inhibition, NCI/ADR-RES; details: Homo sapiens, Ovarian Cancer, 48 h
# Method: as §1, §2, §3
# KM12 = test: SRB growth inhibition, KM12; details: Homo sapiens, KM12, Colon Cancer, 48 h
# Method: as §1, §2, §3
# HL-60(TB) = test: SRB growth inhibition, HL-60(TB); details: Homo sapiens, Leukemia, 48 h
# Method: as §1, §2, §3
# IGROV1 = test: SRB growth inhibition, IGROV1; details: Homo sapiens, IGROV-1, IGROV1, Ovarian Cancer, 48 h
# Method: as §1, §2, §3
# SK-MEL-28 = test: SRB growth inhibition, SK-MEL-28; details: Homo sapiens, SK-MEL-28, Melanoma, 48 h
# Method: as §1, §2, §3
# NCI-H23 = test: SRB growth inhibition, NCI-H23; details: Homo sapiens, NCI-H23, Non-Small Cell Lung Cancer, 48 h
# Method: as §1, §2, §3
# SNB-75 = test: SRB growth inhibition, SNB-75; details: Homo sapiens, SNB-75, CNS Cancer, 48 h
# Method: as §1, §2, §3
# SF-539 = test: SRB growth inhibition, SF-539; details: Homo sapiens, SF-539, CNS Cancer, 48 h
# Method: as §1, §2, §3
# 786-0 = test: SRB growth inhibition, 786-0; details: Homo sapiens, 786-0, Renal Cancer, 48 h
# Method: as §1, §2, §3
# T-47D = test: SRB growth inhibition, T-47D; details: Homo sapiens, T47D, Breast Cancer, 48 h
# Method: as §1, §2, §3
# UACC-257 = test: SRB growth inhibition, UACC-257; details: Homo sapiens, UACC-257, Melanoma, 48 h
# Method: as §1, §2, §3
# K-562 = test: SRB growth inhibition, K-562; details: Homo sapiens, K562, K-562, Leukemia, 48 h
# Method: as §1, §2, §3
# ACHN = test: SRB growth inhibition, ACHN; details: Homo sapiens, Renal Cancer, 48 h
# Method: as §1, §2, §3
# OVCAR-5 = test: SRB growth inhibition, OVCAR-5; details: Homo sapiens, OVCAR-5, Ovarian Cancer, 48 h
# Method: as §1, §2, §3
# SF-268 = test: SRB growth inhibition, SF-268; details: Homo sapiens, SF-268, CNS Cancer, 48 h
# Method: as §1, §2, §3
# TK-10 = test: SRB growth inhibition, TK-10; details: Homo sapiens, TK-10, Renal Cancer, 48 h
# Method: as §1, §2, §3
# MDA-MB-231/ATCC = test: SRB growth inhibition, MDA-MB-231/ATCC; details: Homo sapiens, Breast Cancer, 48 h
# Method: as §1, §2, §3
# UO-31 = test: SRB growth inhibition, UO-31; details: Homo sapiens, UO-31, Renal Cancer, 48 h
# Method: as §1, §2, §3
# U251 = test: SRB growth inhibition, U251; details: Homo sapiens, U-251, U251, CNS Cancer, 48 h
# Method: as §1, §2, §3
# HCT-116 = test: SRB growth inhibition, HCT-116; details: Homo sapiens, HCT-116, Colon Cancer, 48 h
# Method: as §1, §2, §3
# SK-MEL-5 = test: SRB growth inhibition, SK-MEL-5; details: Homo sapiens, SK-MEL-5, Melanoma, 48 h
# Method: as §1, §2, §3
# SF-295 = test: SRB growth inhibition, SF-295; details: Homo sapiens, SF-295, CNS Cancer, 48 h
# Method: as §1, §2, §3
# PC-3 = test: SRB growth inhibition, PC-3; details: Homo sapiens, PC-3, Prostate Cancer, 48 h
# Method: as §1, §2, §3
# SN12C = test: SRB growth inhibition, SN12C; details: Homo sapiens, Renal Cancer, 48 h
# Method: as §1, §2, §3
# MDA-MB-468 = test: SRB growth inhibition, MDA-MB-468; details: Homo sapiens, MDA-MB-468, Breast Cancer, 48 h
# Method: as §1, §2, §3
compound,measurement,setting,value
"S=C(N/N=C1/CCOc2cccnc21)N1CCN(c2ccccn2)CC1 [Example 3, (Z)—N′-(2H-pyrano[3,2-b]pyridin-4(3H)-ylidene)-4-(pyridin-2-yl)piperazine-1-carbothiohydrazide]",GI50,MALME-3M,1290 nM
same,GI50,CCRF-CEM,< 10 nM
same,GI50,SK-OV-3,82 nM
same,GI50,A498,192 nM
same,GI50,BT-549,71.8 nM
same,GI50,M14,37.5 nM
same,GI50,SW-620,< 10 nM
same,GI50,HT29,< 10 nM
same,GI50,MCF7,< 10 nM
same,GI50,HS 578T,754 nM
same,GI50,MDA-MB-435,271 nM
same,GI50,A549/ATCC,155 nM
same,GI50,UACC-62,170 nM
same,GI50,EKVX,140 nM
same,GI50,NCI-H322M,221 nM
same,GI50,NCI-H522,505 nM
same,GI50,COLO 205,< 10 nM
same,GI50,NCI-H226,338 nM
same,GI50,HOP-62,37.2 nM
same,GI50,LOX IMVI,25.1 nM
same,GI50,OVCAR-8,37.4 nM
same,GI50,MOLT-4,< 10 nM
same,GI50,OVCAR-3,< 10 nM
same,GI50,HCT-15,< 10 nM
same,GI50,CAKI-1,151 nM
same,GI50,HCC-2998,701 nM
same,GI50,OVCAR-4,16.5 nM
same,GI50,RXF 393,1340 nM
same,GI50,DU-145,345 nM
same,GI50,SK-MEL-2,799 nM
same,GI50,SR,65.5 nM
same,GI50,NCI-H460,38.8 nM
same,GI50,SNB-19,433 nM
same,GI50,RPMI-8226,< 10 nM
same,GI50,HOP-92,16.7 nM
same,GI50,NCI/ADR-RES,37.4 nM
same,GI50,KM12,225 nM
same,GI50,HL-60(TB),14.9 nM
same,GI50,IGROV1,< 10 nM
same,GI50,SK-MEL-28,472 nM
same,GI50,NCI-H23,32.1 nM
same,GI50,SNB-75,1080 nM
same,GI50,SF-539,1160 nM
same,GI50,786-0,77.1 nM
same,GI50,T-47D,< 10 nM
same,GI50,UACC-257,11.8 nM
same,GI50,K-562,< 10 nM
same,GI50,ACHN,196 nM
same,GI50,OVCAR-5,991 nM
same,GI50,SF-268,410 nM
same,GI50,TK-10,748 nM
same,GI50,MDA-MB-231/ATCC,74.8 nM
same,GI50,UO-31,132 nM
same,GI50,U251,26.5 nM
same,GI50,HCT-116,< 10 nM
same,GI50,SK-MEL-5,222 nM
same,GI50,SF-295,232 nM
same,GI50,PC-3,< 10 nM
same,GI50,SN12C,1490 nM
same,GI50,MDA-MB-468,< 10 nM
